Molecular target: BRAF^V600E protein (Homo sapiens, UniProt P15056, V600E)
Experiment: HiBiT cellular BRAF V600E degradation assay
Format: cell-based
Conditions: 24 h incubation; for DC50: A375.10 cells (HiBiT tag knocked in at N-terminal of BRAF V600E), concentration at which 50% of total cellular BRAF V600E is degraded; for Emax / HiBit 24 h Emax: A375.10 cells, Emax = amount of residual protein remaining in the cell after compound treatment; for Emax: read-out: HiBit 24 h Emax
Excerpt: DMEM no-phenol red medium supplemented with L-glutamine was purchased from (Corning). Fetal bovine serum (FBS) was purchased from Gibco (Grand Island, NY, USA). Nano-Glo® HiBiT Lytic Assay Buffer & Reagents were purchased from Promega (Madison, WI, USA). […] Cell culture flasks and 384-well black flat-bottom polystyrene TC-treated microplates were acquired from Corning (Corning, NY, USA).
HiBiT Cellular BRAFv^600E Degradation Assay
Prior to the assay, the A375.10 cell line is maintained in DMEM no-phenol red medium supplemented with 10% fetal bovine serum (FBS). […] Briefly, test compounds were added to the 384-well plate from a top concentration of 10 μM with 11 half log dilutions of compound, plated in duplicate. Then, 30 uL of a suspension of A375.10 cell lines was dispensed into columns 1-24 of the 384-well plates at a cell density of 7500 cells per well. The plates were kept at 37° C. with 5% CO2 for the duration of the assay (6 or 24 hr). After the desired incubation time with compound, 30 uL of Nano-Glo® HiBiT Lytic Buffer containing LgBiT protein (diluted 1:100) and luminescence substrate (diluted 1:50) were added to the cells in columns 1-23 of the assay plate. The plate was the incubated for 30 min on the bench at room temperature. Finally, HiBiT luminescence signal was acquired on EnVision™ Multilabel Reader (PerkinElmer, Santa Clara, CA, USA).
Quantification of luminescence responses measured in the presence of compound were normalized to a high signal/no degradation control (untreated cells+lytic detection reagent) and a low signal/full degradation control (untreated cells, no lytic detection reagent). Data were analyzed with a 4-parameter logistic fit to generate sigmoidal dose-response curves. […] The Emax, or maximum effect of each compound, represents the amount of residual protein remaining in the cell following compound treatment.

Chain of BRAF^V600E protein (P15056 whole entry V600E): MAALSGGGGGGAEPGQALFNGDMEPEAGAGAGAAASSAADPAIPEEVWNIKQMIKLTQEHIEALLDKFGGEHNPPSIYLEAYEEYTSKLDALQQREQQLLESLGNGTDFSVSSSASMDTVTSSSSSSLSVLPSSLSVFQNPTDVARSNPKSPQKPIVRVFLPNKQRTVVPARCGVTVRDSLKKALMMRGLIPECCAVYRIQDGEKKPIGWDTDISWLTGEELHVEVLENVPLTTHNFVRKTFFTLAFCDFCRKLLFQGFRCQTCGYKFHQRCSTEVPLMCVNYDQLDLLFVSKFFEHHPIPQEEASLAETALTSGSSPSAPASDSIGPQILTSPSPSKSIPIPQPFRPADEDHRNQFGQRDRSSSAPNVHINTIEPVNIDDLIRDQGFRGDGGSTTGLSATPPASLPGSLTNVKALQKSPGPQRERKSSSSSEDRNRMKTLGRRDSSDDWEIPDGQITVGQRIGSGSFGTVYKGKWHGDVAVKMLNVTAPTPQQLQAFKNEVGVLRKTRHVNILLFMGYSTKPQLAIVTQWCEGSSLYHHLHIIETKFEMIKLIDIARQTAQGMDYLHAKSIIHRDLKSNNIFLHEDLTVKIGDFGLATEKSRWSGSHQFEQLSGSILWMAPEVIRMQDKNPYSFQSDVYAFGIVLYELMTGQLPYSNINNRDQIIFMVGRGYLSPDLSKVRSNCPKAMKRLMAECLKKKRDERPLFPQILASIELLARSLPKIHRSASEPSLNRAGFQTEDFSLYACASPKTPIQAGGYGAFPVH

CC(C)S(=O)(=O)Nc1ccc(F)c(C(=O)c2c[nH]c3ncc(-c4cnc(N5CCN(C(=O)CN6CCC(c7ccc(C8CCC(=O)NC8=O)cc7F)CC6)CC5)nc4)cc23)c1F (centres unmarked) [Example 9, N-[3-[5-[2-[4-[2-[4-[4-(2,6-dioxo-3-piperidyl)-2-fluoro-phenyl]-1-piperidyl]acetyl]piperazin-1-yl]pyrimidin-5-yl]-1H-pyrrolo[2,3-b]pyridine-3-carbonyl]-2,4-difluoro-phenyl]propane-2-sulfonamide]
DC50: 10.7 nM | Emax: 3.41%

CC(C)S(=O)(=O)Nc1ccc(F)c(C(=O)c2c[nH]c3ncc(-c4cnc(N5CCN(C(=O)CN6CCC(c7ccc8c(N9CCC(=O)NC9=O)nn(C)c8c7)CC6)CC5)nc4)cc23)c1F [Example 10, N-[3-[5-[2-[4-[2-[4-[3-(2,4-dioxohexahydropyrimidin-1-yl)-1-methyl-indazol-6-yl]-1-piperidyl]acetyl]piperazin-1-yl]pyrimidin-5-yl]-1H-pyrrolo[2,3-b]pyridine-3-carbonyl]-2,4-difluoro-phenyl]propane-2-sulfonamide]
DC50: 4.45 nM | Emax: 8.46%

CC(C)S(=O)(=O)Nc1ccc(F)c(C(=O)c2c[nH]c3ncc(-c4ccc(N5CCN(C(=O)CN6CCC(c7ccc(NC8CCC(=O)NC8=O)cc7)CC6)CC5)nc4)cc23)c1F (centres unmarked) [Example 11, N-[3-[5-[6-[4-[2-[4-[4-[(2,6-dioxo-3-piperidyl)amino]phenyl]-1-piperidyl]acetyl]piperazin-1-yl]-3-pyridyl]-1H-pyrrolo[2,3-b]pyridine-3-carbonyl]-2,4-difluoro-phenyl]propane-2-sulfonamide]
DC50: 5.08 nM | Emax: 7.97%

CC(C)S(=O)(=O)Nc1ccc(F)c(C(=O)c2c[nH]c3ncc(-c4ccc(N5CCN(C(=O)CN6CCC(c7ccc(NC8CCC(=O)NC8=O)cc7F)CC6)CC5)nc4)cc23)c1F (centres unmarked) [Example 12, N-[3-[5-[6-[4-[2-[4-[4-[(2,6-dioxo-3-piperidyl)amino]-2-fluoro-phenyl]-1-piperidyl]acetyl]piperazin-1-yl]-3-pyridyl]-1H-pyrrolo[2,3-b]pyridine-3-carbonyl]-2,4-difluoro-phenyl]propane-2-sulfonamide]
DC50: 9.73 nM | Emax: 8.03%

CC(C)S(=O)(=O)Nc1ccc(F)c(C(=O)c2c[nH]c3ncc(-c4ccc(N5CCN(C(=O)CN6CCC(c7ccc(OC8CCC(=O)NC8=O)cc7)CC6)CC5)nc4)cc23)c1F (centres unmarked) [Example 13, N-[3-[5-[6-[4-[2-[4-[4-[(2,6-dioxo-3-piperidyl)oxy]phenyl]-1-piperidyl]acetyl]piperazin-1-yl]-3-pyridyl]-1H-pyrrolo[2,3-b]pyridine-3-carbonyl]-2,4-difluoro-phenyl]propane-2-sulfonamide]
DC50: 20.9 nM | Emax: 9.56%

CC(C)S(=O)(=O)Nc1ccc(F)c(C(=O)c2c[nH]c3ncc(-c4ccc(N5CCN(C(=O)CN6CCC(c7ccc(C8CCC(=O)NC8=O)cc7)CC6)CC5)nc4)cc23)c1F (centres unmarked) [Example 14, N-[3-[5-[6-[4-[2-[4-[4-(2,6-dioxo-3-piperidyl)phenyl]-1-piperidyl]acetyl]piperazin-1-yl]-3-pyridyl]-1H-pyrrolo[2,3-b]pyridine-3-carbonyl]-2,4-difluoro-phenyl]propane-2-sulfonamide]
DC50: 8.56 nM | Emax: 3.41%

CC(C)S(=O)(=O)Nc1ccc(F)c(C(=O)c2c[nH]c3ncc(-c4ccc(N5CCN(C(=O)CN6CCC(c7ccc(C8CCC(=O)NC8=O)cc7F)CC6)CC5)nc4)cc23)c1F (centres unmarked) [Example 15, N-[3-[5-[6-[4-[2-[4-[4-(2,6-dioxo-3-piperidyl)-2-fluoro-phenyl]-1-piperidyl]acetyl]piperazin-1-yl]-3-pyridyl]-1H-pyrrolo[2,3-b]pyridine-3-carbonyl]-2,4-difluoro-phenyl]propane-2-sulfonamide]
DC50: 9.59 nM | Emax: 2.65%

CCN(C)S(=O)(=O)Nc1ccc(F)c(C(=O)c2c[nH]c3ncc(-c4cnc(N5CCN(C(=O)CN6CCC(c7ccc(NC8CCC(=O)NC8=O)cc7)CC6)CC5)nc4)cc23)c1F (centres unmarked) [Example 18, 5-[2-[4-[2-[4-[4-[(2,6-dioxo-3-piperidyl)amino]phenyl]-1-piperidyl]acetyl]piperazin-1-yl]pyrimidin-5-yl]-3-[3-[[ethyl(methyl)sulfamoyl]amino]-2,6-difluoro-benzoyl]-1H-pyrrolo[2,3-b]pyridine]
DC50: 2.85 nM | HiBit 24 h Emax: 7.93%

CCN(C)S(=O)(=O)Nc1ccc(F)c(C(=O)c2c[nH]c3ncc(-c4cnc(N5CCN(C(=O)CN6CCN(c7ccc(NC8CCC(=O)NC8=O)cc7)CC6)CC5)nc4)cc23)c1F (centres unmarked) [Example 19, 5-[2-[4-[2-[4-[4-[(2,6-dioxo-3-piperidyl)amino]phenyl]piperazin-1-yl]acetyl]piperazin-1-yl]pyrimidin-5-yl]-3-[3-[[ethyl(methyl)sulfamoyl]amino]-2,6-difluoro-benzoyl]-1H-pyrrolo[2,3-b]pyridine]
DC50: 8.57 nM | HiBit 24 h Emax: 11.26%

CCN(C)S(=O)(=O)Nc1ccc(F)c(C(=O)c2c[nH]c3ncc(-c4cnc(N5CCN(C(=O)CN6CCC(c7ccc(NC8CCC(=O)NC8=O)cn7)CC6)CC5)nc4)cc23)c1F (centres unmarked) [Example 21, 5-[2-[4-[2-[4-[5-[(2,6-dioxo-3-piperidyl)amino]-2-pyridyl]-1-piperidyl]acetyl]piperazin-1-yl]pyrimidin-5-yl]-3-[3-[[ethyl(methyl)sulfamoyl]amino]-2,6-difluoro-benzoyl]-1H-pyrrolo[2,3-b]pyridine]
DC50: 7.1 nM | Emax: 11.9%

CCN(C)S(=O)(=O)Nc1ccc(F)c(C(=O)c2c[nH]c3ncc(-c4cnc(N5CCN(C(=O)CN6CCC(c7ccc(N(C)C8CCC(=O)NC8=O)cc7)CC6)CC5)nc4)cc23)c1F (centres unmarked) [Example 22, 5-[2-[4-[2-[4-[4-[(2,6-dioxo-3-piperidyl)-methyl-amino]phenyl]-1-piperidyl]acetyl]piperazin-1-yl]pyrimidin-5-yl]-3-[3-[[ethyl(methyl)sulfamoyl]amino]-2,6-difluoro-benzoyl]-1H-pyrrolo[2,3-b]pyridine]
DC50: 19.4 nM | HiBit 24 h Emax: 18.02%

CCN(C)S(=O)(=O)Nc1ccc(F)c(C(=O)c2c[nH]c3ncc(-c4cnc(N5CCN(C(=O)CN6CCC(c7ccc(N8CCC(=O)NC8=O)cc7)CC6)CC5)nc4)cc23)c1F [Example 24, 5-[2-[4-[2-[4-[4-(2,4-dioxohexahydropyrimidin-1-yl)phenyl]-1-piperidyl]acetyl]piperazin-1-yl]pyrimidin-5-yl]-3-[3-[[ethyl(methyl)sulfamoyl]amino]-2,6-difluoro-benzoyl]-1H-pyrrolo[2,3-b]pyridine]
DC50: 5.59 nM | HiBit 24 h Emax: 7.88%

CCN(C)S(=O)(=O)Nc1ccc(F)c(C(=O)c2c[nH]c3ncc(-c4cnc(N5CCN(C(=O)CN6CCC(c7ccc(N[C@H]8CCC(=O)NC8=O)cc7)CC6)CC5)nc4)cc23)c1F [Example 25, 5-[2-[4-[2-[4-[4-[[(3S)-2,6-dioxo-3-piperidyl]amino]phenyl]-1-piperidyl]acetyl]piperazin-1-yl]pyrimidin-5-yl]-3-[3-[[ethyl(methyl)sulfamoyl]amino]-2,6-difluoro-benzoyl]-1H-pyrrolo[2,3-b]pyridine]
DC50: 3.63 nM | Emax: 6.36%

CCN(C)S(=O)(=O)Nc1ccc(F)c(C(=O)c2c[nH]c3ncc(-c4cnc(N5CCN(C(=O)CN6CCC(c7ccc(N[C@@H]8CCC(=O)NC8=O)cc7)CC6)CC5)nc4)cc23)c1F [Example 26, 5-[2-[4-[2-[4-[4-[[(3R)-2,6-dioxo-3-piperidyl]amino]phenyl]-1-piperidyl]acetyl]piperazin-1-yl]pyrimidin-5-yl]-3-[3-[[ethyl(methyl)sulfamoyl]amino]-2,6-difluoro-benzoyl]-1H-pyrrolo[2,3-b]pyridine]
DC50: 4.55 nM | Emax: 7%

CCN(C)S(=O)(=O)Nc1ccc(F)c(C(=O)c2c[nH]c3ncc(-c4cnc(N5CCN(C(=O)CN6CCC(c7ccc8c(C9CCC(=O)NC9=O)nn(C)c8c7)CC6)CC5)nc4)cc23)c1F (centres unmarked) [Example 27, 3-(2,6-dioxo-3-piperidyl)-6-[1-[2-[4-[5-[3-[3-[[ethyl(methyl)sulfamoyl]amino]-2,6-difluoro-benzoyl]-1H-pyrrolo[2,3-b]pyridin-5-yl]pyrimidin-2-yl]piperazin-1-yl]-2-oxo-ethyl]-4-piperidyl]-1-methyl-indazole]
DC50: 2.09 nM | Emax: 10.8%

CCN(C)S(=O)(=O)Nc1ccc(F)c(C(=O)c2c[nH]c3ncc(-c4cnc(N5CCN(C(=O)CN6CCC(Nc7ccc8c(C9CCC(=O)NC9=O)nn(C)c8c7)CC6)CC5)nc4)cc23)c1F (centres unmarked) [Example 28, 3-(2,6-dioxo-3-piperidyl)-6-[[1-[2-[4-[5-[3-[3-[[ethyl(methyl)sulfamoyl]amino]-2,6-difluoro-benzoyl]-1H-pyrrolo[2,3-b]pyridin-5-yl]pyrimidin-2-yl]piperazin-1-yl]-2-oxo-ethyl]-4-piperidyl]amino]-1-methyl-indazole]
DC50: 5.81 nM | Emax: 12%
